{"source": "patent US20220023221A1", "about": "“Oral Unit Dosage Form Of Ivermectin” (CHEMO RESEARCH, S.L., priority 2020, published 2022)", "key": {"SARS-CoV-2 virus": {"tested_on": "SARS-CoV-2 virus", "details": "cited from earlier work"}, "[1]": {"details": "increasing doses from 150 μg/kg/day to 1600 μg/kg/day, onchoceriasis patients; cited from earlier work"}, "[2]": {"details": "oral administration of the ivermectin tablets, 600 μg/kg once daily; patient with 100% viral load reduction"}, "SARS-CoV-2": {"tested_on": "SARS-CoV-2", "assay": "viral load by real-time (RT) PCR in the nasal mucosa of SARS-CoV-2 positive patients", "type": "in vivo", "description": "The term “viral load” is well known to a person skilled in the art. The term “viral load” is a measure of the severity of an active viral infection, and can be determined by methods known to the person skilled in the art. As an Example, the viral load can be calculated by estimating the live amount of virus in an involved body fluid such as a number of RNA copies per milliliter of blood plasma. For example, the viral load can be determined by a real-time (RT) PCR test.\nIvermectin tablets as produced in Example 1 were administered for seven days in a daily dose of 600 μg/kg once daily to 9 patients (IVM) which have been tested to be positive for SARS-CoV-2, whereas 7 patients (control) which have been tested to be positive for SARS-CoV-2, received placebo tablets during said 7 days period.\nThe viral load was measured by a real-time (RT) PCR test on treatment days 1, 3, 5 and 7 in the nasal mucosa."}, "[3]": {"details": "oral administration of the approved dose of 200 μg/kg; read-out: maximum plasma concentration (Cmax); cited from earlier work"}}}
{"substance": "ivermectin", "values": [{"measurement": "IC50", "setting": "SARS-CoV-2 virus; SARS-CoV-2 replication in vitro, read-out: concentration resulting in 50% inhibition (IC50)", "result": 2000, "unit": "nM"}, {"measurement": "inhibition of replication of SARS-CoV-2 virus in vitro", "setting": "SARS-CoV-2 virus; ivermectin at 5 μM", "result": "inhibit the replication of SARS-CoV-2 virus in vitro"}, {"measurement": "tolerability", "setting": "[1]", "result": "well tolerated"}, {"measurement": "ivermectin (IVM) concentration in the blood, single patient", "setting": "[2]", "result": 183, "unit": "ng/mL"}, {"measurement": "reduction in viral load", "setting": "SARS-CoV-2; Day 7, 600 μg/kg once daily for seven days, 9 patients, nasal mucosa", "result": "more than 50%"}, {"measurement": "reduction of the viral load compared with control", "setting": "SARS-CoV-2; each timepoint (days 1, 3, 5, 7), 600 μg/kg once daily, nasal mucosa", "result": "greater reduction of the viral load at each timepoint"}, {"measurement": "Decay rate of viral load, single patient", "setting": "SARS-CoV-2; the patient with 183 ng/ml IVM concentration", "result": 0.54, "unit": "day⁻¹"}, {"measurement": "viral load reduction in the nasal mucosa, single patient", "setting": "SARS-CoV-2; the patient with 183 ng/ml ivermectin concentration in the blood", "result": 100, "unit": "%"}, {"measurement": "Cmax", "setting": "[3]", "result": 50, "unit": "nM"}]}
